These results are taken from patent publication US20240036050A1, “Methods Of Detecting And Treating Hepatocellular Carcinoma” (The United States Government As Represented By The …, priority 2022, published 2024).

What all share (type): cell-based, human
Experiment [1] concerns Huh-7.5 cells. In words: GPC3, Tsg101 and CD63 expression in HCC cells by fluorescence microscopy and Western blot. Particulars: for GPC3 and Tsg101 expression: fluorescence microscopy. How it is done:
(§1) Huh7.5 cells were cultured in DMEM high glucose with 10% fetal calf serum (FBS), L-glutamine, 1 mM sodium pyruvate, and 0.1 mM non-essential amino acids with 1% penicillin and streptomycin. Huh-7.5 cells were transfected with CD63-GFP plasmid, and multiple stable cell lines expressing (Huh-7.5-CD63-GFP) were selected using G-418 (Sigma-Aldrich, St. Louis, MO) selection. Human cholangiocarcinoma cell line (HuCCA) and human embryonic kidney cell line (HEK 293) were purchased from ATCC. These two cell lines were cultured according to the instruction provided by the supplier and maintained with regular medium change every three days. Torin 1 was purchased from EMD Millipore, Burlington, MA (475991-10MG), and Bafilomycin A1 were purchased from Cell Signaling Technology, Danvers, MA (54645S). Exosome-free fetal bovine serum was purchased from ThermoFisher Waltham, MA (A2720803). Monoclonal rabbit and mouse antibodies were used as primary antibodies in western blot as well as fluorescent microscopy imaging. Anti-CD81 monoclonal rabbit—MA5-13548—and anti-glypican3 monoclonal rabbit—MA5-16368 purchased from ThermoFisher. Anti-ARF6 monoclonal rabbit—5740S—and anti-Beta actin monoclonal rabbit—4970S purchased from Cell signaling, Anti-Tsg 101 monoclonal mouse sc-7964 purchased from Santa Cruz Biotechnology.
Western blotting was performed using a standard protocol. Cultured cells were harvested by the treatment of trypsin-EDTA (Life Technologies, Carlsbad, CA, USA) at different time points and were washed twice with PBS, then lysed in ice-cold RIPA buffer (Sigma-Aldrich, St. Louis, MO, USA) with a protease inhibitor (ThermoFisher Scientific, Waltham, MA, USA) and phosphatase inhibitor cocktail (Sigma-Aldrich, St. Louis, MO, USA). The total protein content of the extract was quantified using NanoDrop™ 2000 (ThermoFisher Scientific, Waltham, MA, USA). Cell lysates (approximately 20 μg of protein) were loaded by SDS-PAGE and transferred into a nitrocellulose membrane ([…] pore size, ThermoFisher Scientific, Waltham, MA, USA). […]

The subject of experiment [2] is CD63-GFP stable cell line (Huh-7.5-CD63-GFP). Description: CD63-GFP expression by fluorescence microscopy after autophagy modulation. Particulars: increasing concentrations, 72 hours. As for the experimental part:
FIGS. 5A-5D: Show impaired autophagy promotes GPC3 accumulation in exosomes. CD63-GFP stable cell line was treated with increasing concentrations of Torin1 or Bafilomycin A1 for 72 hours.
as §1, with “Anti-ARF6 monoclonal rabbit—5740S—and anti-Beta actin monoclonal rabbit—4970S purchased from Cell signaling, Anti-Tsg 101 monoclonal mouse sc-7964 purchased from Santa Cruz Biotechnology.” left out

Experiment [3] concerns Huh-7.5 cells. In words: Exosome and microvesicle production by immuno-magnetic bead affinity flow cytometry. To be noted: 72 hours; for exosome production and GPC3 positive exosomes: CD63 beads. How it is done: Cells were cultured in exosome-depleted medium three days before the EV analysis. Briefly, cellular debris was removed from the culture supernatant by centrifugation at 2000 g for 30 minutes. Cleared supernatants were transferred to a new tube and mixed with 0.5 volumes of total EV isolation reagent from Invitrogen Carlsbad, CA (4478359). Tubes were incubated at 40 C overnight. The following day samples were centrifuged at 10,000 g for one hour at 40 C. Carefully removed supernatant, and EV pellet was resuspended in PBS and stored at […]. EVs concentration and size distribution were determined using NanoSight (Model NTA3300 with 532 nm green laser module, Malvern, Worcestershire, UK). Biotin anti-human CD63 antibody (Clone: H5C6) was purchased from BioLegend, San Diego, CA (353018). Biotin-conjugated Annexin A1 antibody was purchased from FabGennix Frisco, TX (ANXA1-BIOTIN). Biotin conjugated heparin was purchased from Sigma-Aldrich, Saint Louis, MO (B9806-10MG). Anti-glypican-3 (sc-390587 AF488), Anti-ARF6 (sc-7971 FITC), and Anti-CD81 (sc-166029 PE) were purchased from Santa Cruz Biotechnology, Santa Cruz, CA.
Streptavidin-coated magnetic beads were purchased from Invitrogen Carlsbad, CA (10608D). Beads were prewashed in phosphate buffer saline (PBS) and then incubated with biotinylated antibodies for one hour. Antibodies to CD63 or Annexin A1 were used at a proportion of 4 μg/5 mg of beads, or biotinylated heparin was used at 100 μg/1 mg of beads. […] Following this step, the EV-bead complex was incubated with fluorescence-labeled antibodies diluted in 100 μl PBS 1% BSA for one hour at room temperature. Beads were washed in PBS 1% BSA and then analyzed on a Becton-Dickinson flow cytometer (BD FACS Celesta) using BD FACSDiva Software 6.0, San Jose, CA. […]
The bead-based assay was used to verify the production of microvesicles and exosomes by autophagy modulation. […] The impact of autophagy modulation on the production of exosomes and microvesicles was quantified by flow analysis. […] The next day captured EVs were analyzed after staining with […] by flow cytometry. […]

Experiment [4] has as its system autophagy-deficient HCC lines (Huh-7, Huh-7PX, Huh-7.5). Description: p62 degradation by Western blot after Torin1 treatment. An excerpt:
(§2) FIGS. 9A-9H: Show Association between p62, autophagy status, and glypican 3 (GPC3) expression in HCC cell lines and normal hepatocytes. […] Scale bars=m. […] The results are expressed as the mean±standard deviation (SD). ***P<0.001. For each cell line 10 view fields were quantified. […] Scale bars=20 m. […] Scale bars=20 m.
PHHs or HCC cells were immobilized on glass slides and stained for p62 and glypican 3 by immunostaining. Exosomes and adherent cells were separated isolated from the cultures and lysates (20 μg of protein) prepared and examined for expression of p62, glypican 1, glypican 3 and exosome markers, CD9, TSG101 by SDS-PAGE electrophoresis and Western blotting. Cells were lysed in ice-cold lysis buffer (50 mM Tris HCl pH 8.0, 140 mM NaCl, 1.5 mM MgCl2, 0.5% NP-40 with complete protease inhibitor from Invitrogen) for 10 minutes in ice (about 1×10^6 cells/200 μL). Cells pelleted by low-speed centrifugation. The detergent compatible (DC) protein assay determined protein concentration. Samples were boiled for 10 minutes at 80° C. in the presence of 1× sodium dodecyl sulfate-polyacrylamide gel electrophoresis (SDS-PAGE)-loading buffer (250 mM Tris-HCl pH 6.8, 40% glycerol, 8% SDS, 0.57M β-mercaptoethanol, 0.12% bromophenol blue). Approximately 20 μg of protein was loaded onto 12% SDS-PAGE and transferred into a nitrocellulose membrane (LC2001 Thermo Scientific). […]

The test system of experiment [5] is HCC cell lines (Huh-7, Huh-7PX, Huh-7.5, HLE). In words: DQ-Red BSA endocytosis assay with Torin1 stimulation. Particulars: Torin1 200 nM.
Excerpt: as §2
DQ™ Red BSA (D12051, Thermo Scientific) is a fluorogenic substrate that is endocytosed in cells and traffics through early endosomes to late endosomes that then fuse with acidic hydrolase containing lysosomes. This leads to the formation of endo-lysosomes that degrade DQ-Red BSA, de-quenching the fluorescence of the dye attached to this cargo, therefore, produces bright red spots in endo-lysosomes. Equal number of cells was seeded in 6-well plate. Then, untreated and Torin1-treated live cells were incubated with DQ-Red BSA for one hour. After washing cells with PBS, cells were fixed with 4% paraformaldehyde and counterstained with Hoechst 33342 (H3570, Thermo Scientific). Cells were examined using fluorescent microscopy.
Next, it was confirmed whether HCC cell lines and non-transformed primary hepatocytes could recapitulate impaired autophagy and increased GPC3 expression specific to HCC. A panel of 6 HCC cell lines was examined for p62 expression levels compared to primary human hepatocytes (PHH) using immunocytochemistry (FIG. 9A). […]

The structures appear in SMILES notation.

On to `CO/C1=C\C(C)=C\[C@@H](C)[C@@H](O)[C@@H](C)C/C(C)=C/C=C/[C@H](OC)[C@@H]([C@@H](C)[C@@H](O)[C@H](C)[C@@]2(O)C[C@@H](O)[C@H](C)[C@@H](C(C)C)O2)OC1=O` [Bafilomycin A1], for which the “GPC3 and Tsg101 expression” value in the experiment with Huh-7.5 cells [1] is reported as “accumulates GPC3 expression”. Moreover, in experiment [2], the CD63-GFP expression result is given as “induced its expression”. Moreover, the “exosome production and GPC3 positive exosomes” value with Huh-7.5 cells [3] was “increased exosome release and glypican-positive exosomes”.

For `CCC(=O)N1CCN(c2ccc(-n3c(=O)ccc4cnc5ccc(-c6cnc7ccccc7c6)cc5c43)cc2C(F)(F)F)CC1` [Torin1], the p62 levels entry in experiment [4] is “decreased p62 levels”. Further, the “GPC3 and Tsg101 expression” value in the experiment with Huh-7.5 cells [1] was “degrades GPC3 and Tsg101”. For the same compound, in the experiment on Huh-7.5 cells [1] (two concentrations, 72 hours), the “GPC3 and CD63 levels by Western blot” value was “leads to GPC3 and CD63 degradation”. In addition, the CD63-GFP expression result in experiment [2] was “degrades CD63-GFP chimera protein”. In the experiment with Huh-7.5 cells [3] (Annexin A1 beads), the ARF6 positive microvesicles result is given as “promote ARF6 positive microvesicles”. In the experiment on Huh-7.5 cells [3], the “exosome production and GPC3 positive exosomes” value is “decreased total exosome production and glypican3 positive exosomes”. Also, the DQ-BSA fluorescence signal entry in experiment [5] (autophagy-deficient HCC lines (Huh-7, Huh-7PX, Huh-7.5)) is given as “could only be induced following Torin1 treatment”; in experiment [5] (autophagy-sufficient HLE cells) it was “increased”.
